Holding throughout (assay type): biochemical
For assay [1], the target named is KAT7+JADE1+EAF6+ING5 4 protein complex (Homo sapiens (Human), UniProt O95251). Put plainly: KAT7 JADE1 assay (SAMDI-MS acetylation of H3 1-21 peptide). The note with it: Morrison equation fit; replicate number in parentheses; read-out: KAT7 JADE1 Ki (nM) (replicate number).
The target of a further assay is KAT8 Full length enzyme (Homo sapiens (Human), UniProt Q9H7Z6). Put plainly: KAT8 assay (SAMDI-MS acetylation of H3 1-21 peptide). To be noted: Morrison equation fit; replicate number in parentheses; read-out: KAT8 Ki (nM) (replicate number).
Chain of KAT8 Full length enzyme (Q9H7Z6 whole entry): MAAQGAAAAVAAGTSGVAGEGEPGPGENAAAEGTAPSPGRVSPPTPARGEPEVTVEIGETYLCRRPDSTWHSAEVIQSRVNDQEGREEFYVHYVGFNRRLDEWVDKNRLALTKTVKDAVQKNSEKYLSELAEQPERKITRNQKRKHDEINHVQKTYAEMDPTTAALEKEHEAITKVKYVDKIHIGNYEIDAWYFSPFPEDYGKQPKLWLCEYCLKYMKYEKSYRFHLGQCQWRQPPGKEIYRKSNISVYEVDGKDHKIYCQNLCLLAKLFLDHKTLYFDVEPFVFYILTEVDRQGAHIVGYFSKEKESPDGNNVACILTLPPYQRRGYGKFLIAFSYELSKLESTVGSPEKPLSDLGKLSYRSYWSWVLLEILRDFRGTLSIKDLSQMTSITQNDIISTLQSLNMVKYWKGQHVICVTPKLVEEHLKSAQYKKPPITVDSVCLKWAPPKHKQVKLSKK
Assay [2] deals with KAT7+BRPF2+EAF6+ING5 4 protein complex (Homo sapiens (Human), UniProt O95251). Put plainly: KAT7 BRPF2 assay (SAMDI-MS acetylation of H3 1-21 peptide). To be noted: Morrison equation fit; replicate number in parentheses; read-out: KAT7 BRPF2 Ki (nM) (replicate number).
For a further assay, the target named is KAT5 Full length enzyme (Homo sapiens (Human), UniProt Q92993). Put plainly: KAT5 assay (SAMDI-MS acetylation of H4 1-21 peptide). To be noted: Morrison equation fit; replicate number in parentheses; read-out: KAT5 Ki (nM) (replicate number).
Chain of KAT5 Full length enzyme (Q92993 whole entry): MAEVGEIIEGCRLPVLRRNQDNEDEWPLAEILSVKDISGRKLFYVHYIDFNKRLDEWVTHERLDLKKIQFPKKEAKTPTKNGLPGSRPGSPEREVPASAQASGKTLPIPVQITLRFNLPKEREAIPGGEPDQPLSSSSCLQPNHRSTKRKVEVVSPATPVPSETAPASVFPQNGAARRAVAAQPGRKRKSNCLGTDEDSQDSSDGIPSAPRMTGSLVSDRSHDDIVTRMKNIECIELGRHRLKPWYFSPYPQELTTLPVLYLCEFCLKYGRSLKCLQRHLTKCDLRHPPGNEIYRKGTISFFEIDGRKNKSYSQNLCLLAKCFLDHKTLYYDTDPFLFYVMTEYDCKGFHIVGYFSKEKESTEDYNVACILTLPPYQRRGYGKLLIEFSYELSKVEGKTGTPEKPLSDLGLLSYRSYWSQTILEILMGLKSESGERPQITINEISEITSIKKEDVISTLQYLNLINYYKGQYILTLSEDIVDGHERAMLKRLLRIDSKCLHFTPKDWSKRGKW
The target of assay [3] is KAT7+BRPF1+EAF6+ING5 4 protein complex (Homo sapiens (Human), UniProt O95251). As to the kind of experiment: KAT7 BRPF1 assay (SAMDI-MS acetylation of H3 1-21 peptide). The note with it: Morrison equation fit; replicate number in parentheses.
In the next assay the target is KAT6A Full length enzyme (Homo sapiens (Human), UniProt Q92794). As to the kind of experiment: KAT6A assay (SAMDI-MS acetylation of H3 1-21 peptide). To be noted: Morrison equation fit; replicate number in parentheses; read-out: KAT6A Ki (nM) (replicate number).
Chain of KAT6A Full length enzyme (Q92794 other isoform, or with tags, fused parts or gaps): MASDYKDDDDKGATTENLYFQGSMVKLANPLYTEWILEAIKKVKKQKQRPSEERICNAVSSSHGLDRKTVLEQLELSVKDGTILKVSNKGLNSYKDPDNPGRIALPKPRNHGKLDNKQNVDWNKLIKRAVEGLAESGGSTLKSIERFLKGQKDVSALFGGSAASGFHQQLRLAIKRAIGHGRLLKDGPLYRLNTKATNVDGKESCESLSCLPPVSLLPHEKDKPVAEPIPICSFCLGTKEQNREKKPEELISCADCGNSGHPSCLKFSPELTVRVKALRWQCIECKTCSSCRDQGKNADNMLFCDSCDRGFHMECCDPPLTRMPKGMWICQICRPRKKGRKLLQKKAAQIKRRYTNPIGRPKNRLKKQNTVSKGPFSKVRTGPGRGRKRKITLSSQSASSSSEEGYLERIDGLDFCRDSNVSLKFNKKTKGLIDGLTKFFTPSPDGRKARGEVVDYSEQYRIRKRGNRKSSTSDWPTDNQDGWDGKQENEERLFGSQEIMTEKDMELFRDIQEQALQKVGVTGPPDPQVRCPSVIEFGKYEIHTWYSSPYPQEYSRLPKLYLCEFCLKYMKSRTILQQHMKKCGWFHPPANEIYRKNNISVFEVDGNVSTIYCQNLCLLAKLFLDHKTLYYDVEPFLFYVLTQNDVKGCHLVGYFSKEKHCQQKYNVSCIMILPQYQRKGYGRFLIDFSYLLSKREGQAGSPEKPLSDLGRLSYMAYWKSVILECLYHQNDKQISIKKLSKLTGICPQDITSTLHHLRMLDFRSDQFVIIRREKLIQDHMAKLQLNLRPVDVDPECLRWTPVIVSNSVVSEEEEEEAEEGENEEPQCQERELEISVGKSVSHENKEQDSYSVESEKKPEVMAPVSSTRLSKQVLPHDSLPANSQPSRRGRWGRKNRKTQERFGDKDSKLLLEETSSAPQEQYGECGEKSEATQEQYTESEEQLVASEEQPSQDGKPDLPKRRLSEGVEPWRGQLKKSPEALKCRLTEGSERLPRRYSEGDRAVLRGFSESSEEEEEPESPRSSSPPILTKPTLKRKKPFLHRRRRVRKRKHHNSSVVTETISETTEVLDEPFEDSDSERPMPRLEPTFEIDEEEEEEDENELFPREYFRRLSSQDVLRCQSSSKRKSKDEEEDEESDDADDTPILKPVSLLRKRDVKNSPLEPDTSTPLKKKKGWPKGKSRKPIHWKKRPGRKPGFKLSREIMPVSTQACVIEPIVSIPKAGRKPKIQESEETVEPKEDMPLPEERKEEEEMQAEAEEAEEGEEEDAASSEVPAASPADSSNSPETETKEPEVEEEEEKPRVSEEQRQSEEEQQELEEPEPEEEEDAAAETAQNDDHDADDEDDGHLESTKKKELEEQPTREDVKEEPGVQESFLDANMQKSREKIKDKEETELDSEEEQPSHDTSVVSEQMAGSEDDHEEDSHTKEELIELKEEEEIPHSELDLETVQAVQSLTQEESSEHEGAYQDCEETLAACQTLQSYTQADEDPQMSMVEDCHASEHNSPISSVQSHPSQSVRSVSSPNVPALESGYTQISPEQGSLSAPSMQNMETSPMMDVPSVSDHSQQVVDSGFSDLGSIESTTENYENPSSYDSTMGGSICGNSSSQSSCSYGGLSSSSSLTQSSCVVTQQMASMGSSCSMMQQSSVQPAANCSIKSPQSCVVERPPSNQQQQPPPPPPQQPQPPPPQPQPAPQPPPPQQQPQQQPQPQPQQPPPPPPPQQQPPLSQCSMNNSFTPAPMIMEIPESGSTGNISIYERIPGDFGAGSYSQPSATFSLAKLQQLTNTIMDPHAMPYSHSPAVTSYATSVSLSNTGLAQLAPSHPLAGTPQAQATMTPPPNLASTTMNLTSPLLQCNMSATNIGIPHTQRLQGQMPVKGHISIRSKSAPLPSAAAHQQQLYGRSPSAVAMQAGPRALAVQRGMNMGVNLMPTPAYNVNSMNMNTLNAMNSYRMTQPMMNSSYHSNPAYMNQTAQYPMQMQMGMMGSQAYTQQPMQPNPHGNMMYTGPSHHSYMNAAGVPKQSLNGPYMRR

For the compound `COc1cc2c(NS(=O)(=O)c3c(OC)cccc3OC)noc2cc1Nc1cc(C(C)C)n[nH]1` [Example 50, 2,6-dimethoxy-N-(5-methoxy-6-{[3-(propan-2-yl)-1H-pyrazol-5-yl]amino}-1,2-benzoxazol-3-yl)benzene-1-sulfonamide], the Ki in assay [1] was found to be 113 nM; at KAT8 Full length enzyme it was 709 nM; in assay [2], 22.8 nM; on KAT5 Full length enzyme, 634 nM; in assay [3] it was 28.4 nM; at KAT6A Full length enzyme, 4.5 nM.
Turning to `COc1cc2c(NS(=O)(=O)c3c(OC)cccc3OC)noc2cc1Nc1cc(C2CCNCC2)n[nH]1` [Example 56, 2,6-dimethoxy-N-(5-methoxy-6-{[3-(piperidin-4-yl)-1H-pyrazol-5-yl]amino}-1,2-benzoxazol-3-yl)benzene-1-sulfonamide], the Ki was determined as 594 nM in assay [1]; 7220 nM at KAT8 Full length enzyme; 512 nM in assay [2]; 22200 nM on KAT5 Full length enzyme; 157 nM in assay [3]; 3 nM on KAT6A Full length enzyme.
In the case of `COc1cc2c(NS(=O)(=O)c3ccc(C)cc3OCC(F)F)noc2cc1Nc1cc(C(C)C)[nH]n1` [Example 62, 2-(2,2-difluoroethoxy)-N-(5-methoxy-6-{[5-(propan-2-yl)-1H-pyrazol-3-yl]amino}-1,2-benzoxazol-3-yl)-4-methylbenzene-1-sulfonamide], the Ki in assay [1] was 191 nM; at KAT8 Full length enzyme, 5340 nM; in assay [2], 35.3 nM; at KAT5 Full length enzyme, 750 nM; in assay [3], 38.1 nM; on KAT6A Full length enzyme it was 4.9 nM.
In the case of `CCOc1ccccc1S(=O)(=O)Nc1noc2cc(Nc3cc(C(C)C)[nH]n3)c(OC)cc12` [Example 63, 2-ethoxy-N-(5-methoxy-6-{[5-(propan-2-yl)-1H-pyrazol-3-yl]amino}-1,2-benzoxazol-3-yl)benzene-1-sulfonamide], the inhibition constant (Ki) in assay [1] was found to be 203 nM; on KAT8 Full length enzyme, 13000 nM; in assay [2], 76.2 nM; on KAT5 Full length enzyme, 436 nM; in assay [3], 54.8 nM; on KAT6A Full length enzyme it was 10.2 nM.
Consider `COc1cc2c(NS(=O)(=O)c3ccc(C)cc3OCC(F)F)noc2cc1Nc1cc[nH]n1` [Example 64, 2-(2,2-difluoroethoxy)-N-{5-methoxy-6-[(1H-pyrazol-3-yl)amino]-1,2-benzoxazol-3-yl}-4-methylbenzene-1-sulfonamide], for which the Ki in assay [1] is 136 nM; at KAT8 Full length enzyme it was 550 nM; in assay [2], 144 nM; on KAT5 Full length enzyme it was 48.1 nM; in assay [3] it was 146 nM; on KAT6A Full length enzyme, 0.2 nM.
As for `COc1cc2c(NS(=O)(=O)c3ccccc3OC)noc2cc1Nc1cc(C(C)C)[nH]n1` [Example 65, 2-methoxy-N-(5-methoxy-6-{[5-(propan-2-yl)-1H-pyrazol-3-yl]amino}-1,2-benzoxazol-3-yl)benzene-1-sulfonamide], the Ki in assay [1] was 206 nM; on KAT8 Full length enzyme it was more than 13000 nM; in assay [2], 85.4 nM; at KAT5 Full length enzyme, 1280 nM; in assay [3], 57.4 nM; on KAT6A Full length enzyme it was 8.6 nM.
Regarding `CCOc1cc(C)c(F)cc1S(=O)(=O)Nc1noc2cc(Nc3cc[nH]n3)c(OC)cc12` [Example 77, 2-ethoxy-5-fluoro-N-{5-methoxy-6-[(1H-pyrazol-3-yl)amino]-1,2-benzoxazol-3-yl}-4-methylbenzene-1-sulfonamide], the Ki in assay [1] was 213 nM; at KAT8 Full length enzyme it was 2760 nM; in assay [2], 162 nM; at KAT5 Full length enzyme it was 243 nM; in assay [3] it was 76.1 nM; on KAT6A Full length enzyme it was 0.6 nM.
Take `CCOc1cc(C)ccc1S(=O)(=O)Nc1noc2cc(Nc3cc(C(C)C)[nH]n3)c(OC)cc12` [Example 78, 2-ethoxy-N-(5-methoxy-6-{[5-(propan-2-yl)-1H-pyrazol-3-yl]amino}-1,2-benzoxazol-3-yl)-4-methylbenzene-1-sulfonamide]: the Ki worked out at 109 nM in assay [1]; 8730 nM at KAT8 Full length enzyme; 54.4 nM in assay [2]; 354 nM on KAT5 Full length enzyme; 40.2 nM in assay [3]; 2.5 nM at KAT6A Full length enzyme.
As to `CCOc1cc(C)c(F)cc1S(=O)(=O)Nc1noc2cc(Nc3cc(C(C)C)[nH]n3)c(OC)cc12` [Example 79, 2-ethoxy-5-fluoro-N-(5-methoxy-6-{[5-(propan-2-yl)-1H-pyrazol-3-yl]amino}-1,2-benzoxazol-3-yl)-4-methylbenzene-1-sulfonamide], the Ki in assay [1] was found to be 119 nM; on KAT8 Full length enzyme, 6570 nM; in assay [2] it was 26.5 nM; on KAT5 Full length enzyme it was 692 nM; in assay [3], 25.2 nM; on KAT6A Full length enzyme, 5.1 nM.
Regarding `COc1cc2c(NS(=O)(=O)c3cc4c(cc3OC)CCCC4)noc2cc1Nc1cc(C)n[nH]1` [Example 82, 3-methoxy-N-{5-methoxy-6-[(3-methyl-1H-pyrazol-5-yl)amino]-1,2-benzoxazol-3-yl}-5,6,7,8-tetrahydronaphthalene-2-sulfonamide], the inhibition constant (Ki) in assay [1] is 31.8 nM; at KAT8 Full length enzyme it was 467 nM; in assay [2] it was 18.3 nM; on KAT5 Full length enzyme, 33.8 nM; in assay [3], 7.5 nM; on KAT6A Full length enzyme, 0.1 nM.
Turning to `COc1cc2c(NS(=O)(=O)c3c(OC)cccc3OC)noc2cc1Nc1cc(C)n[nH]1` [Example 84, 2,6-dimethoxy-N-{5-methoxy-6-[(3-methyl-1H-pyrazol-5-yl)amino]-1,2-benzoxazol-3-yl}benzene-1-sulfonamide], the Ki in assay [1] turned out to be 50.6 nM; at KAT8 Full length enzyme, 2970 nM; in assay [2], 10.1 nM; at KAT5 Full length enzyme it was 82.3 nM; in assay [3], 12.2 nM; at KAT6A Full length enzyme, 0.2 nM.
Take `COc1cc2c(NS(=O)(=O)c3c(OC)cc([C@H]4COCCO4)cc3OC)noc2cc1Nc1cc(C2CC2)[nH]n1` [Example 146]: the inhibition constant (Ki) is 3.2 nM in assay [1]; 865 nM on KAT8 Full length enzyme; 1.7 nM in assay [2]; 31.4 nM at KAT5 Full length enzyme; 2.4 nM in assay [3]; 0.9 nM on KAT6A Full length enzyme.
